# Measured values: US12162840B2, “Herbicidal compositions” (SYNGENTA PARTICIPATIONS AG, priority 2018, dated 2024)
# Tested on: cool season plant species
# Assay: B2 Post-emergence efficacy Test 2, cool season plant species
# Format: in vivo
# Details: 15 days after application, 0=no damage, 100=total kill
# Protocol: Seeds of a variety of test species (see Table B1) were sown in standard soil in pots. After cultivation for 12 days (post-emergence) under controlled conditions in a glasshouse (at 24/18° C. or 20/16° C., at day/night; 16 hours light; 65% humidity), the plants were sprayed with an aqueous spray solution derived from the formulation of the technical active ingredient dissolved in IF50 (see Table B2 for composition) and adjuvant (Genapol XO80) was added to the spray solution at a rate of 0.2% v/v. [table] [table] After application, the test plants were grown in a glasshouse under controlled conditions (as above) and watered twice daily. Herbicidal activity was evaluated 15 days after application on a 0-100 scale. The results, where 0=no damage to test plant and 100=total kill of test plant are shown below in Tables 6 to 9.
smiles,measurement,setting,value
Cc1nn(C)c(=O)c(-c2c(F)ccc(Cl)c2CCc2ccc(F)cc2)c1OC(=O)C(C)C [Compound 1.125],Herbicidal activity (0-100 scale) ALOMY,15 g/Ha,10
same,Herbicidal activity (0-100 scale) ALOMY,30 g/Ha,10
same,Herbicidal activity (0-100 scale) ALOMY,60 g/Ha,30
same,Herbicidal activity (0-100 scale) ALOMY,125 g/Ha,30
same,Herbicidal activity (0-100 scale) ALOMY,250 g/Ha,60
same,Herbicidal activity (0-100 scale) ALOMY,500 g/Ha,40
same,Herbicidal activity (0-100 scale) AVEFA,15 g/Ha,30
same,Herbicidal activity (0-100 scale) AVEFA,30 g/Ha,40
same,Herbicidal activity (0-100 scale) AVEFA,60 g/Ha,60
same,Herbicidal activity (0-100 scale) AVEFA,125 g/Ha,70
same,Herbicidal activity (0-100 scale) AVEFA,250 g/Ha,70
same,Herbicidal activity (0-100 scale) AVEFA,500 g/Ha,80
same,Herbicidal activity (0-100 scale) BEAVA,15 g/Ha,70
same,Herbicidal activity (0-100 scale) BEAVA,30 g/Ha,60
same,Herbicidal activity (0-100 scale) BEAVA,60 g/Ha,60
same,Herbicidal activity (0-100 scale) BEAVA,125 g/Ha,70
same,Herbicidal activity (0-100 scale) BEAVA,250 g/Ha,70
same,Herbicidal activity (0-100 scale) BEAVA,500 g/Ha,70
same,Herbicidal activity (0-100 scale) BROTE,15 g/Ha,0
same,Herbicidal activity (0-100 scale) BROTE,30 g/Ha,0
same,Herbicidal activity (0-100 scale) BROTE,60 g/Ha,0
same,Herbicidal activity (0-100 scale) BROTE,125 g/Ha,0
same,Herbicidal activity (0-100 scale) BROTE,250 g/Ha,10
same,Herbicidal activity (0-100 scale) BROTE,500 g/Ha,10
same,Herbicidal activity (0-100 scale) BRSNN,15 g/Ha,80
same,Herbicidal activity (0-100 scale) BRSNN,30 g/Ha,80
same,Herbicidal activity (0-100 scale) BRSNN,60 g/Ha,80
same,Herbicidal activity (0-100 scale) BRSNN,125 g/Ha,90
same,Herbicidal activity (0-100 scale) BRSNN,250 g/Ha,90
same,Herbicidal activity (0-100 scale) BRSNN,500 g/Ha,90
same,Herbicidal activity (0-100 scale) CHEAL,15 g/Ha,90
same,Herbicidal activity (0-100 scale) CHEAL,30 g/Ha,90
same,Herbicidal activity (0-100 scale) CHEAL,60 g/Ha,90
same,Herbicidal activity (0-100 scale) CHEAL,125 g/Ha,90
same,Herbicidal activity (0-100 scale) CHEAL,250 g/Ha,90
same,Herbicidal activity (0-100 scale) CHEAL,500 g/Ha,90
same,Herbicidal activity (0-100 scale) GALAP,30 g/Ha,20
same,Herbicidal activity (0-100 scale) GALAP,60 g/Ha,20
same,Herbicidal activity (0-100 scale) GALAP,125 g/Ha,30
same,Herbicidal activity (0-100 scale) GALAP,250 g/Ha,40
same,Herbicidal activity (0-100 scale) GALAP,500 g/Ha,70
same,Herbicidal activity (0-100 scale) HORVW,15 g/Ha,0
same,Herbicidal activity (0-100 scale) HORVW,30 g/Ha,0
same,Herbicidal activity (0-100 scale) HORVW,60 g/Ha,10
same,Herbicidal activity (0-100 scale) HORVW,125 g/Ha,10
same,Herbicidal activity (0-100 scale) HORVW,250 g/Ha,10
same,Herbicidal activity (0-100 scale) HORVW,500 g/Ha,10
same,Herbicidal activity (0-100 scale) KCHSC,15 g/Ha,0
same,Herbicidal activity (0-100 scale) KCHSC,30 g/Ha,20
same,Herbicidal activity (0-100 scale) KCHSC,60 g/Ha,30
same,Herbicidal activity (0-100 scale) KCHSC,125 g/Ha,50
same,Herbicidal activity (0-100 scale) KCHSC,250 g/Ha,60
same,Herbicidal activity (0-100 scale) KCHSC,500 g/Ha,70
same,Herbicidal activity (0-100 scale) LOLPE,15 g/Ha,40
same,Herbicidal activity (0-100 scale) LOLPE,30 g/Ha,50
same,Herbicidal activity (0-100 scale) LOLPE,60 g/Ha,60
same,Herbicidal activity (0-100 scale) LOLPE,125 g/Ha,70
same,Herbicidal activity (0-100 scale) LOLPE,250 g/Ha,80
same,Herbicidal activity (0-100 scale) LOLPE,500 g/Ha,90
same,Herbicidal activity (0-100 scale) POAAN,15 g/Ha,0
same,Herbicidal activity (0-100 scale) POAAN,30 g/Ha,10
same,Herbicidal activity (0-100 scale) POAAN,60 g/Ha,20
same,Herbicidal activity (0-100 scale) POAAN,125 g/Ha,60
same,Herbicidal activity (0-100 scale) POAAN,250 g/Ha,70
same,Herbicidal activity (0-100 scale) POAAN,500 g/Ha,60
same,Herbicidal activity (0-100 scale) POLCO,15 g/Ha,90
same,Herbicidal activity (0-100 scale) POLCO,30 g/Ha,90
same,Herbicidal activity (0-100 scale) POLCO,60 g/Ha,90
same,Herbicidal activity (0-100 scale) POLCO,125 g/Ha,90
same,Herbicidal activity (0-100 scale) POLCO,250 g/Ha,90
same,Herbicidal activity (0-100 scale) POLCO,500 g/Ha,90
same,Herbicidal activity (0-100 scale) SINAR,15 g/Ha,60
same,Herbicidal activity (0-100 scale) SINAR,30 g/Ha,60
same,Herbicidal activity (0-100 scale) SINAR,60 g/Ha,80
same,Herbicidal activity (0-100 scale) SINAR,125 g/Ha,90
same,Herbicidal activity (0-100 scale) SINAR,250 g/Ha,90
same,Herbicidal activity (0-100 scale) SINAR,500 g/Ha,90
same,Herbicidal activity (0-100 scale) STEME,15 g/Ha,90
same,Herbicidal activity (0-100 scale) STEME,30 g/Ha,90
same,Herbicidal activity (0-100 scale) STEME,60 g/Ha,90
same,Herbicidal activity (0-100 scale) STEME,125 g/Ha,90
same,Herbicidal activity (0-100 scale) STEME,250 g/Ha,90
same,Herbicidal activity (0-100 scale) STEME,500 g/Ha,90
same,Herbicidal activity (0-100 scale) TRZAW,15 g/Ha,0
same,Herbicidal activity (0-100 scale) TRZAW,30 g/Ha,10
same,Herbicidal activity (0-100 scale) TRZAW,60 g/Ha,10
same,Herbicidal activity (0-100 scale) TRZAW,125 g/Ha,20
same,Herbicidal activity (0-100 scale) TRZAW,250 g/Ha,30
same,Herbicidal activity (0-100 scale) TRZAW,500 g/Ha,50
same,Herbicidal activity (0-100 scale) VERPE,15 g/Ha,70
same,Herbicidal activity (0-100 scale) VERPE,30 g/Ha,70
same,Herbicidal activity (0-100 scale) VERPE,60 g/Ha,70
same,Herbicidal activity (0-100 scale) VERPE,125 g/Ha,80
same,Herbicidal activity (0-100 scale) VERPE,250 g/Ha,80
same,Herbicidal activity (0-100 scale) VERPE,500 g/Ha,90
